PubChem BioAssay (NCI)
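Interpolation was linear, between the two tested concentrations surrounding the appropriate level; five concentrations were tested over 48 hours in 96-well plates. Definition used: TGI = concentration required for complete inhibition of growth.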

Columns and labels:
Experiment in all cases: growth of human tumour cells (NCI), 48 h
K-562 leukemia = system: K-562 leukemia
SN12C renal = system: SN12C renal
HT29 colon = system: HT29 colon
NCI-H460 lung = system: NCI-H460 lung
KM12 colon = system: KM12 colon
SW-620 colon = system: SW-620 colon
SNB-75 CNS = system: SNB-75 CNS
NCI-H522 lung = system: NCI-H522 lung
TK-10 renal = system: TK-10 renal
SNB-19 CNS = system: SNB-19 CNS
OVCAR-3 ovarian = system: OVCAR-3 ovarian
RXF 393 renal = system: RXF 393 renal
HOP-62 NSCLC = system: HOP-62 NSCLC
MCF7 breast = system: MCF7 breast
A498 renal = system: A498 renal
MDA-MB-435 = system: MDA-MB-435
MDA-N = system: MDA-N
BT-549 breast = system: BT-549 breast
EKVX NSCLC = system: EKVX NSCLC
SK-OV-3 ovarian = system: SK-OV-3 ovarian
OVCAR-8 ovarian = system: OVCAR-8 ovarian
DU-145 prostate = system: DU-145 prostate
T-47D breast = system: T-47D breast
UACC-257 melanoma = system: UACC-257 melanoma
HS 578T breast = system: HS 578T breast
COLO 205 colon = system: COLO 205 colon
SF-295 CNS = system: SF-295 CNS
CCRF-CEM leukemia = system: CCRF-CEM leukemia
SF-539 CNS = system: SF-539 CNS
SK-MEL-5 melanoma = system: SK-MEL-5 melanoma
HCT-15 colon = system: HCT-15 colon
MDA-MB-231 breast = system: MDA-MB-231 breast
OVCAR-5 ovarian = system: OVCAR-5 ovarian
LOX IMVI melanoma = system: LOX IMVI melanoma
IGROV1 ovarian = system: IGROV1 ovarian
UACC-62 melanoma = system: UACC-62 melanoma
NCI-H23 lung = system: NCI-H23 lung
SK-MEL-2 melanoma = system: SK-MEL-2 melanoma
NCI/ADR-RES ovarian = system: NCI/ADR-RES ovarian
786-0 renal = system: 786-0 renal
MALME-3M melanoma = system: MALME-3M melanoma
SF-268 CNS = system: SF-268 CNS
HL-60(TB) leukemia = system: HL-60(TB) leukemia
ACHN renal = system: ACHN renal
HCT-116 colon = system: HCT-116 colon
A549 NSCLC = system: A549 NSCLC
MOLT-4 leukemia = system: MOLT-4 leukemia
CAKI-1 renal = system: CAKI-1 renal
PC-3 prostate = system: PC-3 prostate
U251 CNS = system: U251 CNS
OVCAR-4 ovarian = system: OVCAR-4 ovarian
UO-31 renal = system: UO-31 renal
SK-MEL-28 melanoma = system: SK-MEL-28 melanoma
HOP-92 NSCLC = system: HOP-92 NSCLC
NCI-H226 lung = system: NCI-H226 lung
M14 melanoma = system: M14 melanoma
RPMI-8226 leukemia = system: RPMI-8226 leukemia
HCC-2998 colon = system: HCC-2998 colon

`COC(=O)[C@]1(C)CC[C@]2(C)CC[C@]3(C)C4[C@H]5Oc6c(cc7c(c6C)CCC6[C@@]7(C)CC[C@@]7(C)C8[C@](C)(CCC[C@@]8(C)C(=O)OC)CC[C@]67C)O[C@H]5c5c(cc6c(c5C)O[C@@]5(C)C7=CC=C8[C@@](C)(CC[C@@]9(C)[C@@H]%10C[C@](C)(C(=O)OC)CC[C@]%10(C)CC[C@]89C)C7=CC(=O)[C@@]5(O)O6)[C@]4(C)CC[C@@]3(C)C2C1` (stereo partly specified) was tested, and the TGI (K-562 leukemia) was 11.6 µM, the TGI (SN12C renal) was 5.31 µM and the TGI (HT29 colon) was over 12.5 µM. For the same compound, the TGI (NCI-H460 lung) was over 12.5 µM, the TGI (KM12 colon) was over 12.5 µM and the TGI (SW-620 colon) was 6.69 µM. It also gave a TGI (SNB-75 CNS) of 10.5 µM, a TGI (NCI-H522 lung) of 5.9 µM and a TGI (TK-10 renal) of 6.07 µM. It also gave a TGI (SNB-19 CNS) of over 12.5 µM, a TGI (OVCAR-3 ovarian) of 5.91 µM and a TGI (RXF 393 renal) of 4.01 µM. For the same compound, the TGI (HOP-62 NSCLC) was over 12.5 µM, the TGI (MCF7 breast) was 9.73 µM and the TGI (A498 renal) was over 12.5 µM. For the same compound, the TGI (MDA-MB-435) was 12.2 µM, the TGI (MDA-N) was 4.02 µM and the TGI (BT-549 breast) was over 12.5 µM. The TGI (EKVX NSCLC) was 10.5 µM, the TGI (SK-OV-3 ovarian) was over 12.5 µM and the TGI (OVCAR-8 ovarian) was 5.95 µM. The TGI (DU-145 prostate) was over 12.5 µM, the TGI (T-47D breast) was 6.94 µM and the TGI (UACC-257 melanoma) was 6.52 µM. It also gave a TGI (HS 578T breast) of over 12.5 µM, a TGI (COLO 205 colon) of over 12.5 µM and a TGI (SF-295 CNS) of over 12.5 µM. The TGI (CCRF-CEM leukemia) was 4.9 µM, the TGI (SF-539 CNS) was 5.41 µM and the TGI (SK-MEL-5 melanoma) was over 12.5 µM. The TGI (HCT-15 colon) was 11.5 µM, the TGI (MDA-MB-231 breast) was 7.08 µM and the TGI (OVCAR-5 ovarian) was over 12.5 µM. It also gave a TGI (LOX IMVI melanoma) of 4.56 µM, a TGI (IGROV1 ovarian) of 5.81 µM and a TGI (UACC-62 melanoma) of 4.61 µM. It also gave a TGI (NCI-H23 lung) of over 12.5 µM, a TGI (SK-MEL-2 melanoma) of 6.14 µM and a TGI (NCI/ADR-RES ovarian) of over 12.5 µM. For the same compound, the TGI (786-0 renal) was 3.59 µM, the TGI (MALME-3M melanoma) was over 12.5 µM and the TGI (SF-268 CNS) was over 12.5 µM. For the same compound, the TGI (HL-60(TB) leukemia) was over 12.5 µM, the TGI (ACHN renal) was over 12.5 µM and the TGI (HCT-116 colon) was 6.63 µM. It also gave a TGI (A549 NSCLC) of over 12.5 µM, a TGI (MOLT-4 leukemia) of 4.85 µM and a TGI (CAKI-1 renal) of over 12.5 µM. It also gave a TGI (PC-3 prostate) of over 12.5 µM, a TGI (U251 CNS) of 11.4 µM and a TGI (OVCAR-4 ovarian) of over 12.5 µM. For the same compound, the TGI (UO-31 renal) was 5.11 µM, the TGI (SK-MEL-28 melanoma) was over 12.5 µM and the TGI (HOP-92 NSCLC) was 4.5 µM. It also gave a TGI (NCI-H226 lung) of over 12.5 µM and a TGI (M14 melanoma) of over 12.5 µM.

`COC(=O)C1=C(C(=O)OC)SC2(S1)C1=C(CCC1)SC(C(=O)OC)=C2C(=O)OC` gave a TGI (K-562 leukemia) of over 100 µM, a TGI (SN12C renal) of 23.4 µM and a TGI (HT29 colon) of 18.5 µM. For the same compound, the TGI (NCI-H460 lung) was 20.2 µM, the TGI (KM12 colon) was 32.1 µM and the TGI (SW-620 colon) was 37.5 µM. It also gave a TGI (NCI-H522 lung) of 9.08 µM, a TGI (RPMI-8226 leukemia) of over 100 µM and a TGI (TK-10 renal) of 29.1 µM. The TGI (SNB-19 CNS) was 36.8 µM, the TGI (OVCAR-3 ovarian) was 24.6 µM and the TGI (RXF 393 renal) was 16.7 µM. It also gave a TGI (HOP-62 NSCLC) of 26.2 µM, a TGI (MCF7 breast) of 22.4 µM and a TGI (A498 renal) of 22.7 µM. It also gave a TGI (MDA-MB-435) of 26 µM, a TGI (MDA-N) of 29.6 µM and a TGI (BT-549 breast) of 31.3 µM. The TGI (EKVX NSCLC) was 29 µM, the TGI (SK-OV-3 ovarian) was 30.5 µM and the TGI (OVCAR-8 ovarian) was 24.6 µM. The TGI (HCC-2998 colon) was 33 µM, the TGI (DU-145 prostate) was 15.8 µM and the TGI (T-47D breast) was 46.3 µM. The TGI (UACC-257 melanoma) was 31.8 µM, the TGI (HS 578T breast) was 35.4 µM and the TGI (COLO 205 colon) was 42 µM. It also gave a TGI (SF-295 CNS) of 28.9 µM, a TGI (CCRF-CEM leukemia) of 12.5 µM and a TGI (SF-539 CNS) of 4.32 µM. The TGI (SK-MEL-5 melanoma) was 36 µM, the TGI (HCT-15 colon) was 21.5 µM and the TGI (MDA-MB-231 breast) was 33.4 µM. It also gave a TGI (OVCAR-5 ovarian) of 34.6 µM, a TGI (LOX IMVI melanoma) of 15.3 µM and a TGI (IGROV1 ovarian) of 26.6 µM. For the same compound, the TGI (UACC-62 melanoma) was 34 µM, the TGI (NCI-H23 lung) was 37 µM and the TGI (SK-MEL-2 melanoma) was 35.8 µM. It also gave a TGI (NCI/ADR-RES ovarian) of 39 µM, a TGI (MALME-3M melanoma) of 36 µM and a TGI (SF-268 CNS) of 34.4 µM. The TGI (HL-60(TB) leukemia) was over 100 µM, the TGI (ACHN renal) was 24.8 µM and the TGI (HCT-116 colon) was 3.65 µM. The TGI (A549 NSCLC) was 32.8 µM, the TGI (MOLT-4 leukemia) was 16.8 µM and the TGI (CAKI-1 renal) was 18.1 µM. It also gave a TGI (PC-3 prostate) of 23.3 µM, a TGI (U251 CNS) of 29.2 µM and a TGI (OVCAR-4 ovarian) of 28.9 µM. It also gave a TGI (UO-31 renal) of 22.7 µM, a TGI (SK-MEL-28 melanoma) of 25.3 µM and a TGI (HOP-92 NSCLC) of 22.5 µM. It also gave a TGI (M14 melanoma) of 35.3 µM.
